Results reported in ChEMBL document CHEMBL1132399, “Synthesis of novel orthoalkylaminophenol derivatives as potent neuroprotective agents in vitro” (Bioorg Med Chem Lett, 1999).

Tests used:
HT-22 [1] = assay: Tested in vitro for neurotoxicity on murine HT-22 hippocampal cell culture, monitored by LDH assay.; assay type: functional; conditions: Mus musculus, read-out: TC50 (the source's name)
HT-22 [2] = assay: Tested in vitro for neurotoxicity on murine HT-22 hippocampal cell culture, monitored by MTT reduction assay; assay type: functional; conditions: Mus musculus, read-out: TC50 (the source's name)
HT-22 [3] = assay: Maximum tolerated concentration required for neurotoxicity on murine HT-22 hippocampal cell culture, monitored by LDH assay tested in vitro; assay type: functional, Mus musculus
HT-22 [4] = assay: Maximum tolerated concentration required for neurotoxicity on murine HT-22 hippocampal cell culture, monitored by MTT reduction assay tested in vitro; assay type: functional, Mus musculus
HT-22 [5] = assay: Compound was tested in vitro for its neuroprotective activity against L-homocysteic acid(L-HCA) cytotoxicity in murine HT-22 hippocampal cell culture monitored by MTT reduction assay; assay type: functional, Mus musculus
HT-22 [6] = assay: Tested in vitro for its neuroprotective activity against L-homocysteic acid(L-HCA) cytotoxicity, in murine HT-22 hippocampal cell culture, monitored by LDH assay.; assay type: functional, Mus musculus
[7] = Safety index (MTC/PC50); assay type: toxicity; conditions: read-out: Safety index
HT-22 [8] = assay: Tested in vitro for its neuroprotective activity against L-homocysteic acid(L-HCA) cytotoxicity, in murine HT-22 hippocampal cell culture, monitored by MTT reduction assay; assay type: functional, Mus musculus

## Cc1c(C)c2c(c(C)c1O)CC[C@@](C)(CCC[C@H](C)CCC[C@H](C)CCCC(C)C)O2 [ALPHA-TOCOPHEROL]
HT-22 [1]
  CC50: > 200 µM
HT-22 [2]
  CC50: > 200 µM
HT-22 [3]
  MTC: >200 µM
HT-22 [4]
  MTC: >200 µM
HT-22 [5]
  PC50: 0.8 µM
HT-22 [6]
  PC50: 1.7 µM
[7]
  selectivity ratio: > 250

## O=C(c1cc(O)c(O)c(O)c1)c1ccc(O)c(O)c1O [EXIFONE]
HT-22 [1]
  CC50: 91 µM
HT-22 [2]
  CC50: 34 µM
HT-22 [3]
  MTC: 50 µM
HT-22 [4]
  MTC: 10 µM
HT-22 [6]
  PC50: >10 µM
HT-22 [8]
  PC50: >10 µM
